According to US11015169B2, “Culture medium for pluripotent stem cells” (Kyoto University, priority 2014, dated 2021):

How the values were obtained:
Type in all cases: cell-based
[1] = system: Human ES cell lines KhES-1; test: Subculture of human ES cells in medium comprising a GSK3β inhibitor and a DYRK inhibitor, cell observation; conditions: KhES-1, no feeder cells, vitronectin-N-coated dish; for maintenance of the ES cells (stability), among the GSK3β inhibitors: combined with DYRK inhibitor ID-8 500 nM, 1-azakenpaullone 750 nM, kenpaullone 500 nM
Method: 25 mL of a solution in which a powder DMEM/F-12 medium (D0547, produced by Sigma-Aldrich) had been diluted two-fold with water, 1.4 mL of 6% sodium hydrogen carbonate solution, 0.75 mL of 1 M HEPES solution, 0.045 mL of 0.23 M ascorbic acid solution, 0.9 ML of ITS (Insulin-Transferrin-Selenium: 1 mg/ml-0.55 mg/ml-0.7 μg/ml) solution (ITS-G 41400-045, produced by Life Technologies), and 16.905 mL of water were mixed to obtain 45 mL of basal medium (340 mOsm, pH 7.2 to 7.5).
A GSK3β inhibitor (1-azakenpaullone (A3734, produced by Sigma-Aldrich), kenpaullone (1094-1, produced by BioVision), CHIR99021 (1386, produced by Axon Medchem), or BIO (B1686, produced by Sigma-Aldrich)), and a DYRK inhibitor (ID-8 (11786, produced by Sigma-Aldrich), harmine (Ser. No. 10/010,324, produced by Cayman Chemical), an indirubin analog 716 (6i) (ACS Medicinal Chemistry Letters, 2013, vol. 4, no. 1, pp. 22-26), INDY (405273, produced by Merck Millipore Corporation), L41 (MR-00023, produced by AdipoGen), or TG003 (4336, produced by R&D Systems)) were each added singly or in combination to the basal medium to thereby obtain a medium. The following are final concentrations in the medium.
Human ES cell lines KhES-1 (provided by Riken BioResource Center) were subcultured in the above medium. More specific details are below. The following culture was performed in the absence of feeder cells in a dish (vitronectin-N-coated dish) in which coating treatment was performed overnight using 1 μg of vitronectin-N (A14700 produced by Life Technologies) per 1 cm^2 of the culture dish.
ES cell colonies cultured in accordance with a standard method using a general-purpose medium for human ES cells (20% knockout serum replacement (10828-028, produced by Life Technology), 4 ng/ml of FGF2 (100-18B, produced by Peprotech)/DMEM/F-12 medium (11330-032, produced by Life Technology)) were rinsed once with PBS. A dispase solution (10 mg/ml dispase (Ser. No. 17/105,041, produced by Life Technologies)/DMEM/F-12) was added thereto so as to cover the cells, followed by being left to stand for 5 minutes. […]

[2] = system: Human ES cell lines KhES-1; test: Fold increase of cells within 6 days without passage
Method: (§1) A medium further comprising an NFAT inhibitor (tacrolimus (FK-506) (1007965, produced by Cayman Chemical)), in addition to a GSK3β inhibitor (1-azakenpaullone or kenpaullone) and a DYRK inhibitor (ID-8), was prepared as in Example 1. Using this medium, subculture and cell observation were performed as in Example 1. Separately from this, passage P1 was performed using this medium, as in Example 1, followed by culturing for 6 days without performing passage. Thereafter, the number of the cells was counted in accordance with a standard method, and, based on the counted number of cells, how many times the number of the cells increased within 6 days was calculated.

[3] = system: Human ES cell lines KhES-1; test: Subculture and cell observation in medium further comprising an NFAT inhibitor; conditions: tacrolimus added in addition to azakenpaullone and ID-8, FIG. 3A
Method: as §1

## O=C1Cc2c([nH]c3ccc(Br)cc23)-c2ncccc2N1 [1-azakenpaullone]
[1]
  maintenance of the ES cells (stability), among the GSK3β inhibitors: most stable manner
[2]; GSK3β inhibitor with ID-8 and tacrolimus, FIG. 3B
  cell growth (fold increase of the cells), comparison of GSK3β inhibitors: accelerates the cell growth more than kenpaullone

## COc1ccc(-n2c(C)c([N+](=O)[O-])c3ccc(O)cc32)cc1 [ID-8]
[1]; combined with 1-azakenpaullone 750 nM, ID-8 500 nM
  maintenance of the ES cells (stability), among the DYRK inhibitors: most stable manner

## O=C1Cc2c([nH]c3ccc(Br)cc23)-c2ccccc2N1 [kenpaullone]
[1]
  maintenance of the ES cells (stability), among the GSK3β inhibitors: most stable manner

## C=CC[C@@H]1/C=C(\C)C[C@H](C)C[C@H](OC)[C@H]2O[C@@](O)(C(=O)C(=O)N3CCCC[C@H]3C(=O)O[C@H](/C(C)=C/[C@@H]3CC[C@@H](O)[C@H](OC)C3)[C@H](C)[C@@H](O)CC1=O)[C@H](C)C[C@@H]2OC [tacrolimus]
[3]
  maintenance of ES cells in an undifferentiated state: ES cells are maintained in an undifferentiated state
[2]; tacrolimus added in addition to azakenpaullone and ID-8, FIG. 3B
  cell growth (fold increase of the cells): notably accelerated
